We go through one molecule from patent US10085449B2, “N-[1-((6-chloropyridin-3-yl)methyl)pyridin-2(1H)-ylidene]-2,2,2- trifluoroacetamide for control of agricultural/horticultural pests” (priority 2010, dated 2018).

Data set [1] has as its system house fly crude enzyme extract. As to the kind of experiment: In vitro metabolic test using house fly crude enzyme extract. Format: in vitro ADME. The settings on record: house fly crude enzyme extract with NADP+ regenerating system, 25° C., 40 hours, LC/MS. The protocol: As mentioned in Pest Management Science, 59(3), 347-352 (2003) and the Journal of Pesticide Science, 29(2), 110-116 (2004), imidacloprid is known to be inactivated by incurring oxidative metabolism, which is thought to be one mechanism of acquiring resistance to this agent. The following experiment was carried out to confirm the effects in pests which have acquired such resistance.
An amount of 10 mL of a potassium phosphate buffer solution (pH 7.4, containing 1 mM EDTA) was added to adult house flies (0.645 g), and the flies were thoroughly homogenized in a Physcotron (Niti-On Medical and Physical Instruments Manufacturing Co.). The homogenate was then centrifuged at 10,000 g for 15 minutes. The resulting supernatant was additionally centrifuged at 100,000 g for 60 minutes, giving a precipitate. The precipitate was dissolved in 1 mL of a potassium phosphate buffer, and the resulting solution was used as the crude enzyme extract. The enzyme extraction operations were all carried out on ice or at 4° C.
The reagents were mixed in the following proportions within a 1.5 mL tube, and the reaction was effected at 25° C. for 40 hours. Following the reaction, 1 mL of acetone was added and the mixture was stirred, following which the precipitate that formed was centrifuged at 12,000 rpm for 5 minutes. […]

Data set [2] relates to small brown planthopper having a low susceptibility to insecticides. The data set can be described thus: Small brown planthopper control test, pests having a low susceptibility to insecticides (soil drenching). Type of data set: in vivo. The settings on record: 0.01 mg/seedling soil drenching. The procedure: (§1) Rice seedlings grown in pots were subjected to soil drenching treatment with solutions of the inventive compounds at a predetermined concentration prepared to 10% acetone/water. Three days after treatment, ten second-instar small brown planthopper larvae having a low susceptibility to insecticides were released onto each seedling. The seedlings and insects were then held in an incubation chamber at 25° C. (16-hour period of light, 8-hour dark period). Three days after released, the numbers of live and dead insects were counted, and the mortality was calculated from the following formula. The test was carried out as two replications. Mortality (%)=[number of dead insects/(number of live insects+number of dead insects)]×100
The pests used in this test were insects that had been raised indoors for successive generations over a long period of time (susceptible line), and insects that had been raised indoors for successive generations after being collected in 2006 within Kumamoto Prefecture (field-collected line).

For data set [3], the system named is brown rice planthopper having a low susceptibility to insecticides. Type of data set: in vivo. The settings on record: 0.05 mg/seedling soil drenching. The protocol:
as §1, with “second-instar” for “second-instar small”, “brown rice” for “brown”
The pests used in this test were insects that had been raised indoors for successive generations over a long period of time (susceptible line), and insects that had been raised indoors for successive generations after being collected (I) in 2007 within Kumamoto Prefecture and (II) in 2005 within Fukuoka Prefecture (field-collected lines).

For data set [4], the system named is Haemaphysalis longicornis. Type of data set: in vivo. The settings on record: 10 ppm acetone solution (30 μL) dry film, larval ticks, 1 day after release. The protocol: Glass vials having a capacity of 4 mL were each filled with 30 μL of an acetone solution containing 200 ppm or 10 ppm of the respective compounds. These filled vials were placed on a shaker and air-dried while being spun, thereby forming dry films of the compounds on the inner walls of the vials. After the vials had been dried for at least 24 hours, ten larval ticks (Haemaphysalis longicornis) were released into each vial, following which the vials were capped. The vials were then left at rest in an incubation chamber at 25° C., 85% humidity and complete darkness. One day after released, the numbers of live and dead ticks were counted, and the mortality was calculated from the following formula.
This test was carried out as two replications. Mortality (%)=[number of dead ticks/(number of live ticks+number of dead ticks)]×100

Where two headings read alike, the source gives them in different places.

In the case of `O=[N+]([O-])NC1=NCCN1Cc1ccc(Cl)nc1` [imidacloprid], in data set [1], the “Sum of the surface area percentages for the metabolites” value came to 2.55%. Besides, the Mortality is 50% in data set [2] (field-collected line (2006 Kumamoto Prefecture)); 100% in data set [2] (susceptible line); 40% in data set [3] (field-collected line (I) 2007 Kumamoto Prefecture); 60% in data set [3] (field-collected line (II) 2005 Fukuoka Prefecture); 100% in data set [3] (susceptible line); 4% in data set [4].
